Data taken from patent US12427192B2, “Water soluble adjuvant and composition containing same” (Sumitomo Pharma Co., Ltd., priority 2019, dated 2025).
Each block holds one compound with its values, some of them ahead of it.

Key:
[1] = target: T1, human TLR7 (Homo sapiens, UniProt Q9NYK1); test: Human TLR7 reporter gene assay (TLR7/NF-κB/SEAPorter HEK293 cell line), Tests 1 and 21; type: cell-based
T1 construct: expresses full-length human TLR7 and secretory alkaline phosphatase (SEAP) reporter gene; host or cells: HEK293 (TLR7/NF-κB/SEAPorter)
T1 sequence (Q9NYK1 27-1049): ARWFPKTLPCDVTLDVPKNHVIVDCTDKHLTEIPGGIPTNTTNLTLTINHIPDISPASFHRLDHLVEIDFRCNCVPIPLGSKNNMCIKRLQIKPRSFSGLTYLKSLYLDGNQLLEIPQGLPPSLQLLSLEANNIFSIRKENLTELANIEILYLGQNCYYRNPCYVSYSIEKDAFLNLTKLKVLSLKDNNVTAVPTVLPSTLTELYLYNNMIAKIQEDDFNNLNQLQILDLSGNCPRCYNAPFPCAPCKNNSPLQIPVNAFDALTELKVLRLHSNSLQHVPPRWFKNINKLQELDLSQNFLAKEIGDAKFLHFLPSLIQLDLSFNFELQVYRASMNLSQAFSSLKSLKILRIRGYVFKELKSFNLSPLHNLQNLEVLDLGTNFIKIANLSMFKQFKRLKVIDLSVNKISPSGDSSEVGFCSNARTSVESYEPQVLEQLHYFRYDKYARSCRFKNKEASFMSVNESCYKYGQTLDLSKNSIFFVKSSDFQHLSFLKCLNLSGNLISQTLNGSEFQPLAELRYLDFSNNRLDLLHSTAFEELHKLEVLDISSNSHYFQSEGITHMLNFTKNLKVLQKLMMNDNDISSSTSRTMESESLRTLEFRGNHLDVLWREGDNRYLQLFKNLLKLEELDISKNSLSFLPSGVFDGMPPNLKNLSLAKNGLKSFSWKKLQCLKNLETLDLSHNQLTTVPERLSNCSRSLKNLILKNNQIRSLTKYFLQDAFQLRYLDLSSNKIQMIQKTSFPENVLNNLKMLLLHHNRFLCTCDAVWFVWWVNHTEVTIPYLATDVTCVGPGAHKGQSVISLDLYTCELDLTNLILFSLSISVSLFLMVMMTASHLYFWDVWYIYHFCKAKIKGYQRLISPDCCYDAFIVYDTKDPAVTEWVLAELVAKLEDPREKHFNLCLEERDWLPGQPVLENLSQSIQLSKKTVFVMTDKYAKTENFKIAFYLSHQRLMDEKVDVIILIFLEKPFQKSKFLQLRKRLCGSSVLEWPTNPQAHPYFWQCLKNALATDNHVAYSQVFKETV
Source text: Human TLR7 Reporter Gene Assay
(§1) TLR7/NF-κB/SEAPorter™ HEK293 cell line (Imgenex Corporation) is a stably co-transfected cell line which expresses full-length human TLR7 and secretory alkaline phosphatase (SEAP) reporter gene under the transcriptional regulation of an NF-κB response element. The TLR7 expression of the cell line has been already tested by flow cytometry. Transfectants with stable expression were selected using the antibiotic blasticidin and Geneticin. TLR signaling leads to the translocation of NF-κB and the activation of the promoter results in expression of the SEAP gene. TLR7-specific activation was assessed by determining the level of SEAP produced following 24-hour incubation of the cells at 37° C. with each compound prepared in Examples and Reference examples in the presence of 0.1% (v/v) dimethylsulfoxide (DMSO). The human TLR7 activity for the present compound was assessed by human TLR7 reporter gene assay, and the results are shown in Tables 3 and 4 as the compound concentration which produced half of the maximal level of SEAP induction (EC50)
According to the method of Test 1, human TLR7 reporter gene assay was done with the following samples, and the result was shown in the table below.

[2] = target: T2, mouse TLR7 (Mus musculus, UniProt P58681); test: Mouse TLR7 reporter gene assay (HEK-Blue mTLR7 cell line), Test 2; type: cell-based; settings: half of maximal SEAP induction, 20-24-hour incubation, 0.1% DMSO
T2 construct: expresses full-length mouse TLR7 and secretory SEAP reporter gene; host or cells: HEK-Blue mTLR7 (HEK293-derived)
T2 sequence (P58681 27-1050): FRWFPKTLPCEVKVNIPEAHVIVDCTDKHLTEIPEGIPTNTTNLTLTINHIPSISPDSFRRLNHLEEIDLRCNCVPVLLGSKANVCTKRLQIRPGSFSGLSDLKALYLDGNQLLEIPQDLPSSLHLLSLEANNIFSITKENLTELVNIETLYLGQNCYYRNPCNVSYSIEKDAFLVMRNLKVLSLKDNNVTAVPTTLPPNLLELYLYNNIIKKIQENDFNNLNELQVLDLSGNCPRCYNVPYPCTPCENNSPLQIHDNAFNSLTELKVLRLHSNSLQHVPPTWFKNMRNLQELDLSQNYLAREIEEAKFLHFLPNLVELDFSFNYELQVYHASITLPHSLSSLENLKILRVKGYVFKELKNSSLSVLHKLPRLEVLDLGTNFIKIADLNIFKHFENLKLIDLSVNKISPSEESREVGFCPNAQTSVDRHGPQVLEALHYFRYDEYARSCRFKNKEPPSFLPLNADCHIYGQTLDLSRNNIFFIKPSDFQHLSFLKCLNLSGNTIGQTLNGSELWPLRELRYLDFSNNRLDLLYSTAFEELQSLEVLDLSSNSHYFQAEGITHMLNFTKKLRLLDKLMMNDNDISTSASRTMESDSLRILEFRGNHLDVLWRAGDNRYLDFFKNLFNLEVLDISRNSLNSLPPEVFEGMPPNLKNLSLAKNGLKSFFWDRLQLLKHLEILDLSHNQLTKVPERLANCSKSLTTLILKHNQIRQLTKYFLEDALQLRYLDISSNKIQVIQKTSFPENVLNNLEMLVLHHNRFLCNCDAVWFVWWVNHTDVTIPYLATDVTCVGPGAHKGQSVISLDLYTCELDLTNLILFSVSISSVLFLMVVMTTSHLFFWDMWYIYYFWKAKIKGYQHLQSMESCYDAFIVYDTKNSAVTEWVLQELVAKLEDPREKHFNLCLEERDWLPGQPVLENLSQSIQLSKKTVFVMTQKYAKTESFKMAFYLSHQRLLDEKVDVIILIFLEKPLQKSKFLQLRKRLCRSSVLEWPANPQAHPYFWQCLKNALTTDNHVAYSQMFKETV
Source text: Test 2 Mouse TLR7 Reporter Gene Assay
HEK-Blue™ mTLR7 cell line (Invivogen) is a stably co-transfected cell line which expresses full-length mouse TLR7 and secretory SEAP reporter gene under the transcriptional regulation of an NF-κB response element. The TLR7 expression of the cell line has been already tested by RT-PCR. Transfectants with stable expression were selected using the antibiotic blasticidin and Zeocin. TLR signaling leads to the translocation of NF-κB and the activation of the promoter results in expression of the SEAP gene. TLR7-specific activation was assessed by determining the level of SEAP produced following 20-24-hour incubation of the cells at 37° C. with each compound prepared in Examples and Reference examples in the presence of 0.1% (v/v) DMSO. The mouse TLR7 activity for the present compound was assessed by mouse TLR7 reporter gene assay, and the results are shown in Tables 5 and 6 as the compound concentration which produced half of the maximal level of SEAP induction (EC50).

[3] = target: T1, human TLR7; test: Human TLR7 reporter gene assay (HEK-Blue hTLR7 cell line), Test 22; type: cell-based; settings: method of Test 1
Source text: as §1
According to the method of Test 1, human TLR7 reporter gene assay was done with the following samples, and the result was shown in the table below. The cell used herein was HEK-Blue™ hTLR7 cell line (Invivogen). HEK-Blue™ hTLR7 cell line is a stably co-transfected cell line which expresses full-length human TLR7 and secretory SEAP reporter gene under the transcriptional regulation of an NF-κB response element. The TLR7 expression of the cell line has been already tested by RT-PCR. Transfectants with stable expression were selected using the antibiotic blasticidin and Zeocin.

[4] = system: HLA-A*02:01 transgenic mouse; test: Test 9: in vivo adjuvant activity, cocktail vaccine b, IFNγ ELISPOT; settings: added to cocktail vaccine b; Peptide SEQ ID No. 1 or SEQ ID No. 4; 0.4 nmol per body, twice; FIG. 6 and 7
Procedure: Evaluation of In Vivo Adjuvant Activity in HLA-A*02:01 Transgenic Mouse
The in vivo adjuvant activity of the compounds prepared in Examples 8, 9, and 10 and the compound prepared in Reference example 12 was evaluated in the following procedure. To cocktail vaccine b comprising Compound of formula 4 prepared in Reference example 8 and Peptide SEQ ID No. 3 prepared in Reference example 3 with Montanide ISA51 VG was added the compound prepared in Example 8, 9, or 10, or the compound prepared in Reference example 12 to prepare each vaccine. The vaccine was administered to a HLA-A*02:01 transgenic mouse, and the adjuvant activity of each vaccine was evaluated by the method of testing antigen-specific CTL induction.
Specifically, Compound of formula 4 and Peptide SEQ ID No. 3 were dissolved in DMSO, and then diluted with water for injection to concentrations of Compound of formula 4 of 3 mg/mL and Peptide SEQ ID No. 3 of 2.25 mg/mL. The diluted peptide solution was mixed and emulsified with an equal volume of Montanide ISA 51 VG to prepare cocktail vaccine b. Cocktail vaccine b was injected to mice intradermally at the tail base area in an amount for administering 300 μg of Compound of formula 4 per body and 225 μg of Peptide SEQ ID No. 3 per body. Or, in the step of preparing cocktail vaccine b, the compound prepared in Example 8, 9, or 10, or the compound prepared in Reference example 12 was added to the diluted peptide solution to prepare a vaccine, and the prepared vaccine was injected to mice intradermally at the tail base area in an amount for administering 300 μg of Compound of formula 4 per body, 225 μg of Peptide SEQ ID No. 3 per body, and 0.4 nmol of the compound prepared in Example 8, 9, or 10, or the compound prepared in Reference example 12 per body. The administrations were done twice, which had one week interval. One week after the final administration, the mice were sacrificed with CO2 gas. Splenocytes were harvested from spleens removed from the mice. Like Test 4, Peptide (SEQ ID No. 1 or SEQ ID No. 4) was added to the splenocyte-containing ELISPOT plate at a final concentration of 10 μg/ml, and the plate was incubated overnight at 37° C. under an atmosphere of 5% CO2 to re-stimulate the peptide in vitro. Then, after removal of the supernatant from the wells, stained spots on the ELISPOT plate were counted.

[5] = Test 1, TLR7/NF-κB/SEAPorter HEK293 cell line, half of maximal SEAP induction, 24-hour incubation, 0.1% DMSO, read-out: EC50
[6] = Test 21, according to the method of Test 1, read-out: human EC50

- EC50 [1, 5]: 0.094 µM
- EC50 [2]: 0.021 µM
SMILES: CCC[C@@H](CCO)Nc1nc(N)nc(C)c1Cc1ccc(CN(C)CCOCCOCCOCCOCCO)cc1OC [Example 2, 1-{4-[(2-amino-4-{[(3S)-1-hydroxyhexan-3-yl]amino}-6-methylpyrimidin-5-yl)methyl]-3-methoxyphenyl}-2-methyl-5,8,11,14-tetraoxa-2-azahexadecan-16-ol-trifluoroacetate]

- EC50 [1, 6]: 0.637 µM
SMILES: CCCCCNc1nc(N)nc(C)c1Cc1cc(CN(C)CCOCCOCCOCCOCCO)ccc1OC [Example 3, 1-(3-{[2-amino-4-methyl-6-(pentylamino)pyrimidin-5-yl]methyl}-4-methoxyphenyl)-2-methyl-5,8,11,14-tetraoxa-2-azahexadecan-16-ol-trifluoroacetate]

- EC50 [3]: 7.27 µM
SMILES: CCC[C@@H](CO)Nc1nc(N)nc(C)c1Cc1ccc(C(=O)NCCOCCOCCOCCOCCOCCOCCO)cc1OC [Example 5, 4-[(2-amino-4-{[(2S)-1-hydroxypentan-2-yl]amino}-6-methylpyrimidin-5-1)methyl]-N-(20-hydroxy-3,6,9,12,15,18-hexaoxaicosan-1-yl)-3-methoxybenzamide]

- EC50 [1, 6]: 0.388 µM
SMILES: CCCCCNc1nc(N)nc(C)c1Cc1ccc(CN(C)CCOCCOCCOCCOCCOCCOCCOCCOCCOCCO)cc1OC [Example 8, 1-(4-{[2-amino-4-methyl-6-(pentylamino)pyrimidin-5-yl]methyl}-3-methoxyphenyl)-2-methyl-5,8,11,14,17,20,23,26,29-nonaoxa-2-azahentriacontan-31-ol]
- CTL counts responsive to the peptide compared with Reference example 12 [4]: more
- CTL counts responsive to the peptide compared with adding no compound [4]: more

- EC50 [1, 6]: 3.99 µM
SMILES: CCCCCNc1nc(N)nc(C)c1Cc1ccc(CN(C)CCOCCOCCOCCOCCOCCOCCOCCOCCOCCOCCOCCOCCOCCOCCOCCOCCOCCOCCOCCOCCOCCOCCOCCO)cc1OC [Example 9, 1-(4-{[2-amino-4-methyl-6-(pentylamino)pyrimidin-5-yl]methyl}-3-methoxyphenyl)-2-methyl-5,8,11,14,17,20,23,26,29,32,35,38,41,44,47,50,53,56,59,62,65,68,71-tricosaoxa-2-azatriheptacontan-73-ol]
- CTL counts responsive to the peptide compared with Reference example 12 [4]: more
- CTL counts responsive to the peptide compared with adding no compound [4]: more

- EC50 [1, 6]: 3.81 µM
SMILES: CCCCCNc1nc(N)nc(C)c1Cc1ccc(CN(C)CCOCCOCCOCCOCCOCCOCCOCCOCCOCCOCCOCCOCCOCCOCCOCCOCCOCCOCCOCCOCCOCCOCCOCCOCCOCCOCCOCCOCCOCCOCCOCCOCCOCCOCCOCCO)cc1OC [Example 10, 1-(4-{[2-amino-4-methyl-6-(pentylamino)pyrimidin-5-yl]methyl}-3-methoxyphenyl)-2-methyl-5,8,11,14,17,20,23,26,29,32,35,38,41,44,47,50,53,56,59,62,65,68,71,74,77,80,83,86,89,92,95,98,101,104,107-pentatriacontaoxa-2-azanonahectan-109-ol]

- EC50 [1, 5]: 0.008 µM
- EC50 [2]: 0.002 µM
SMILES: CCC[C@@H](CCO)Nc1nc(N)nc(C)c1Cc1ccc(CNC)cc1OC [compound 11, (3S)-3-{[2-amino-5-({2-methoxy-4-[(methylamino)methyl]phenyl}methyl)-6-methylpyrimidin-4-yl]amino}hexan-1-ol, reference compound]
